According to ChEMBL document CHEMBL1201862, “PubChem BioAssay data set” (2004):
The source made the active and inactive calls.

Assays:
[1] = target: T1, Dual specificity protein phosphatase 3 (Homo sapiens, UniProt P51452); experiment: VHR1 phosphatase inhibitors, biochemical (AID 1878)
[2] = target: T1, Dual specificity protein phosphatase 3; experiment: VHR1 phosphatase inhibitors, primary screen, biochemical, absorbance, uHTS (AID 1654)
[3] = target: T2, Dual specificity protein phosphatase 6 (Rattus norvegicus, UniProt Q64346); experiment: inhibition of rat DUSP6 enzyme activity – biochemical, in vitro, primary screen (AID 425)
T2 sequence (Q64346 whole entry): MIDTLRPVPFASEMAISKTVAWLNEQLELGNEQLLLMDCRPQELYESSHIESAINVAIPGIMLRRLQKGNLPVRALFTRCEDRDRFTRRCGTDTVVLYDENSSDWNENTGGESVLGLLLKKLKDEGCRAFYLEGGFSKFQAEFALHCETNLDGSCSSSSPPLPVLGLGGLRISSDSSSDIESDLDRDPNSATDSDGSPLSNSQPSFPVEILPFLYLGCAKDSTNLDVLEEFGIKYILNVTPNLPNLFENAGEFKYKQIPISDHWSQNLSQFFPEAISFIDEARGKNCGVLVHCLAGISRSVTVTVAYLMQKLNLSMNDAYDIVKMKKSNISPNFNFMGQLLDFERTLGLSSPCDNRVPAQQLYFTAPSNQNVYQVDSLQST

[4] = target: T3, Voltage-gated N-type calcium channel alpha-1B subunit/Amyloid beta A4 precursor protein-binding family A member 1 (Homo sapiens, UniProt Q00975+Q02410); format: protein assay
T3 sequence (Q00975 whole entry): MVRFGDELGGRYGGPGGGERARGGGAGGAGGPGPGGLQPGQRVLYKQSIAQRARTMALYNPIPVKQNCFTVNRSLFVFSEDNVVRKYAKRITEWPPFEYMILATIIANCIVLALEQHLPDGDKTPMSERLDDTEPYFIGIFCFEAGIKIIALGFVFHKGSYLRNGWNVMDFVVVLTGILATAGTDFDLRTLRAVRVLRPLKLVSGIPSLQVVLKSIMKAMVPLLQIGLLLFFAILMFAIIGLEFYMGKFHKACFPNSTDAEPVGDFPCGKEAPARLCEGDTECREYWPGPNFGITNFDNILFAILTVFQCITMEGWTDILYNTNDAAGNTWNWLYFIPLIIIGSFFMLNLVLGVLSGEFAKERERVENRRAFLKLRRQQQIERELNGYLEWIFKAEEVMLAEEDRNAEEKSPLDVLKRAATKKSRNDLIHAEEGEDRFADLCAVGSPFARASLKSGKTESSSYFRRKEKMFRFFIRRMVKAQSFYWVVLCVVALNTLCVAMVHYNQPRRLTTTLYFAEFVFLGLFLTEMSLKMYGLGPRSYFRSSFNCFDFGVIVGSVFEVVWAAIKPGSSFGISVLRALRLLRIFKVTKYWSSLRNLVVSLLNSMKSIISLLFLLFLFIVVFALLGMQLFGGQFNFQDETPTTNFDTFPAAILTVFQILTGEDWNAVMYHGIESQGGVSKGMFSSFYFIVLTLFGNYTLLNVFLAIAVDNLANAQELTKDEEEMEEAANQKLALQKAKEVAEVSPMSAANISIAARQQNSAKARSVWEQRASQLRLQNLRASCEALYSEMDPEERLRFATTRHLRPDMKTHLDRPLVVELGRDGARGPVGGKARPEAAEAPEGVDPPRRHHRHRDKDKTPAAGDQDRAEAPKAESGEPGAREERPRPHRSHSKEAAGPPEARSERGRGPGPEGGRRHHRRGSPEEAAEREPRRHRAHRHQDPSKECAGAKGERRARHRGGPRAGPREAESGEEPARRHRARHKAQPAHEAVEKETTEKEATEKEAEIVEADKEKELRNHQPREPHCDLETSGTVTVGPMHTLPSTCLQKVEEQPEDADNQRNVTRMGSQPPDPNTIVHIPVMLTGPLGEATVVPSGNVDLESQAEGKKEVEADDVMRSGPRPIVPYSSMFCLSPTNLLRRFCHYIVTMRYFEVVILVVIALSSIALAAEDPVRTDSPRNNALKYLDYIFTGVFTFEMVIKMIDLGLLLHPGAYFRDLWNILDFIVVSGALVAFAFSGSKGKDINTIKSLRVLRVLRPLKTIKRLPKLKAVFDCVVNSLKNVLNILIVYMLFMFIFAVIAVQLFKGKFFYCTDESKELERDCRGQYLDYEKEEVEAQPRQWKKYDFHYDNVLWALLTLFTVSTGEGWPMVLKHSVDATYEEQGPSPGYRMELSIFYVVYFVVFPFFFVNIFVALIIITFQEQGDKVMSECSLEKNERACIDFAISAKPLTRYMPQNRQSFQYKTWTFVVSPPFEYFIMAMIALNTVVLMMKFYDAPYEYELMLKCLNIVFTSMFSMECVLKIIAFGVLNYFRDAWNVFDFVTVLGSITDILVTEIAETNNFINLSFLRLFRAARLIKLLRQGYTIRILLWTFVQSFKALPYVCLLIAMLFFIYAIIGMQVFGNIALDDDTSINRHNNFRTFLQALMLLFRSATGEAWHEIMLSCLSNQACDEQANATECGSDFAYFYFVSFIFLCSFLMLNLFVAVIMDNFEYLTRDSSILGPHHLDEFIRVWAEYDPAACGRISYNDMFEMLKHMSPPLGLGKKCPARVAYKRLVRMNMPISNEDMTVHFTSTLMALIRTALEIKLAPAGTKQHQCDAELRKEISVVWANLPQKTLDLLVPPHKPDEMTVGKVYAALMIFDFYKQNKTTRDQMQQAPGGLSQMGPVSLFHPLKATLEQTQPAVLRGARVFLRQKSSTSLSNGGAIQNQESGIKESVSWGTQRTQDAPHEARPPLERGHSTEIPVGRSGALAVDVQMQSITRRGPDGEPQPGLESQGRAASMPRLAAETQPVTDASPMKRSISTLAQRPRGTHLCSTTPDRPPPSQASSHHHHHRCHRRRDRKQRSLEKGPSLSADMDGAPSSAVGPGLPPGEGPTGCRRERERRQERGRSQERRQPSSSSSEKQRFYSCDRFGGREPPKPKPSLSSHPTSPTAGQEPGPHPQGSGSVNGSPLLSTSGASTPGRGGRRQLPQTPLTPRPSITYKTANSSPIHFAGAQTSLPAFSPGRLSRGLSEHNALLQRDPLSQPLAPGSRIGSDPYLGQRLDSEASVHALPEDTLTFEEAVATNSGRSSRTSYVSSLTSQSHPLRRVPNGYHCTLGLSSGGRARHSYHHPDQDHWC
T3 sequence (Q02410 whole entry): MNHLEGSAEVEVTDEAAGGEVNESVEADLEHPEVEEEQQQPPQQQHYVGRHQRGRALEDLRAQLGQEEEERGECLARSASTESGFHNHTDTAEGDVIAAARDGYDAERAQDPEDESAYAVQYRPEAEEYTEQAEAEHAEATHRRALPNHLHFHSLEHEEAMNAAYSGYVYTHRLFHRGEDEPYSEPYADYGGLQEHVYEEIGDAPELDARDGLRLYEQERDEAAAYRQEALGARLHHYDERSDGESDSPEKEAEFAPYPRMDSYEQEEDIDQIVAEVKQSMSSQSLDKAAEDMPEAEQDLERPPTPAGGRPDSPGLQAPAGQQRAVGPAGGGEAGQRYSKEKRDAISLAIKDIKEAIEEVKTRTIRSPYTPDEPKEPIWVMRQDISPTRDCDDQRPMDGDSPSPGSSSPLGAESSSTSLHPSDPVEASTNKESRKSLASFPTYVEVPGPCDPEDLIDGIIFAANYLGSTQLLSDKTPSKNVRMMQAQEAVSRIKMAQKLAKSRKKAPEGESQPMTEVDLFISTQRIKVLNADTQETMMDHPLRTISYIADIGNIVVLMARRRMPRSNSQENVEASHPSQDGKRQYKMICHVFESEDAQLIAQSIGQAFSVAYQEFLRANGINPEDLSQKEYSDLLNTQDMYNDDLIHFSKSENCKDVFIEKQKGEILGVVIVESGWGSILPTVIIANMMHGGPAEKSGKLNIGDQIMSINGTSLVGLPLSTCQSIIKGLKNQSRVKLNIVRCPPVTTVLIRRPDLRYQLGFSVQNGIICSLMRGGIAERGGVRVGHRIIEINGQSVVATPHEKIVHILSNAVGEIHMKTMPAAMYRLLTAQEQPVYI

[5] = target: Eukaryotic translation initiation factor 4E (Mus musculus, UniProt P63073); experiment: blockers of eIF4G binding by eIF4E – biochemical, TR-FRET, dose response (AID 855); format: functional;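 further: potency for disrupting eIF4E binding to eIF4GI seen as loss of FRET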
Chain of Eukaryotic translation initiation factor 4E (P63073 whole entry): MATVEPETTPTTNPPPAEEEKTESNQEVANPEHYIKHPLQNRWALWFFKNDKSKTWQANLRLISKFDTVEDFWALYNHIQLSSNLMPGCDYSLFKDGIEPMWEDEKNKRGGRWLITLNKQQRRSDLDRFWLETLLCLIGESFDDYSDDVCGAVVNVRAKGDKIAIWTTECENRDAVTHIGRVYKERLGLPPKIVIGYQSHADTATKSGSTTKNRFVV

[6] = target: T3, Voltage-gated N-type calcium channel alpha-1B subunit/Amyloid beta A4 precursor protein-binding family A member 1; format: protein assay; remark: listed apart in the source
[7] = target: T4, Polyadenylate-binding protein 1 (Homo sapiens, UniProt P11940); experiment: MLLE binding blockers, Cy5 peptide tracer – biochemical, fluorescence polarization, Cy5-PAM2 peptide, secondary, miRNA deadenylation inhibitor project, dose response (AID 602260); format: functional; settings: read-out: IC50_Mean
T4 sequence (P11940 whole entry): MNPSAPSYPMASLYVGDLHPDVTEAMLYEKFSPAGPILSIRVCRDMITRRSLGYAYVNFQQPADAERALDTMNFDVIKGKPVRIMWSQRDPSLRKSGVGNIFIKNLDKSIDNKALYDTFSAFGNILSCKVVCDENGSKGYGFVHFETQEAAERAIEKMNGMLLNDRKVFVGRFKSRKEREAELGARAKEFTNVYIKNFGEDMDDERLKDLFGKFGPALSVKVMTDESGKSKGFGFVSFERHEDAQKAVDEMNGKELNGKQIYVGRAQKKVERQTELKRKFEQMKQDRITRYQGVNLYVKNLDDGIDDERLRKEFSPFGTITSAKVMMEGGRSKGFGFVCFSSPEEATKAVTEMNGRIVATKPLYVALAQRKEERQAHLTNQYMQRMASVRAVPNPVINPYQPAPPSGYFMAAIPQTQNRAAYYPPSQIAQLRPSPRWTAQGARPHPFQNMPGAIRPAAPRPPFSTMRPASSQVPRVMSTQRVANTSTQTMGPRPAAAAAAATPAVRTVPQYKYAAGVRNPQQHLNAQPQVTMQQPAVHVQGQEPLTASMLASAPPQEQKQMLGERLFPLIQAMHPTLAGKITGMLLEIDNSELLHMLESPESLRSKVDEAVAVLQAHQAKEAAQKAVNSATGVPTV

[8] = target: Induced myeloid leukemia cell differentiation protein Mcl-1 (Homo sapiens, UniProt Q07820); format: functional
[9] = target: T4, Polyadenylate-binding protein 1; experiment: MLLE domain peptide-binding blockers, IC50 – biochemical, fluorescence polarization, FITC-PAM2 peptide, dose response (AID 602259); format: functional; settings: read-out: IC50_Mean
[10] = HepG2 cell cytotoxicity, dose response, cytotoxicity control for non-replicating M. tuberculosis project (AID 489018); format: functional; settings: Mycobacterium tuberculosis
Streptococcus = experiment: GAS UMAA2166 growth inhibition – luminescence, BacTiterGlo, counter-screen for streptokinase expression inhibitor project, dose response (AID 1915); format: functional, organism-based;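 further: potency for reduction of bacterial viability or growth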
[11] = Vero E6 cell cytotoxicity, dose response, cytotoxicity control for non-replicating M. tuberculosis project, secondary assay (AID 492998); format: functional, VeroE6; settings: Vero C1008
fMet-Leu-Phe receptor = target: T5, fMet-Leu-Phe receptor (Homo sapiens, UniProt P21462); experiment: formyl peptide receptor binders – dose response (AID 519); format: functional
T5 sequence (P21462 whole entry): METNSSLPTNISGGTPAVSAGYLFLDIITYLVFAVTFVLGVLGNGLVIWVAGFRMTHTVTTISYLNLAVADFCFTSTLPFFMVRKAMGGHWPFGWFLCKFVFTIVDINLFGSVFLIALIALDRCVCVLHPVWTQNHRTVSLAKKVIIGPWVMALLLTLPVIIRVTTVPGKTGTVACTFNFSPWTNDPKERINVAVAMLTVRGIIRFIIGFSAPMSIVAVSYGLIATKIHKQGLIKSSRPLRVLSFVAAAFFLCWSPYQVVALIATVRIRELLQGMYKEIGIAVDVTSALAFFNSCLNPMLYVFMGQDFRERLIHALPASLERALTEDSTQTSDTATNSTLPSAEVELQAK

[12] = tested on: Streptococcus sp. 'group A'; experiment: Streptococcus pyogenes SK(-)GAS viability under kanamycin – luminescence, BacTiterGlo, confirmation, counter-screen for streptokinase expression inhibitor project, dose response (AID 1900); format: functional, organism-based
[13] = THP-1 cell cytotoxicity, dose response, cytotoxicity control for non-replicating M. tuberculosis project (AID 489025); format: functional
cells [14] = format: functional
CAAX prenyl protease 2 = CAAX prenyl protease 2 (Saccharomyces cerevisiae S288c, UniProt Q03530); format: biochemical
[15] = NIH3T3 cell viability loss – ATP luminescence, mouse fibroblasts, counter-screen, dose response (AID 2010); format: functional, cell-based;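 further: cells exposed to compound for about 90 hours before reading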
[16] = Trypanosoma cruzi growth suppression in host cells – NIH3T3 host cells, beta-gal luminescence, confirmation (AID 2044); format: functional, cell-based;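 further: intracellular parasites grown in NIH/3T3 mouse fibroblasts as host cells; luminescent beta-galactosidase reporter signal from transgenic T. cruzi replicating inside host cells; inhibitors lower the luminescence signal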
[17] = Intein inhibitors as potential Tuberculosis drugs, a cytotoxicity screen. [Related pubchem assays (depositor defined):AID2221, AID2223, AID434968, AID435010, AID449749, AID449750, AID489010]; format: functional
[18] = target: T6, Calpain-2 catalytic subunit (Sus scrofa, UniProt P43367); experiment: m-calpain protease blockers, concentration series – biochemical, fluorogenic peptide substrate, dose response (AID 1420); format: functional
T6 sequence (P43367 whole entry): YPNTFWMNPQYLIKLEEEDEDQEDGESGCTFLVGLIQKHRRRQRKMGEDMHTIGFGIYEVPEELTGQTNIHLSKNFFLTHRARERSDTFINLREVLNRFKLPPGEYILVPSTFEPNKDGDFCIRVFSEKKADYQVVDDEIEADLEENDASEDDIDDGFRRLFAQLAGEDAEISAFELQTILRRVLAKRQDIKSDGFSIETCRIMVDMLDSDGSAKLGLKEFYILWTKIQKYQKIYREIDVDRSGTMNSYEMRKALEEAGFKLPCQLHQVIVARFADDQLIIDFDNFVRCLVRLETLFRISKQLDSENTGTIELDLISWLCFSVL

[19] = target: T7, Replicative DNA helicase DnaB (Mycobacterium tuberculosis, UniProt P9WMR3); experiment: DnaB intein splicing inhibitors, dose response, biochemical, cell-free fluorescence (AID 449749); format: functional
T7 sequence (P9WMR3 whole entry): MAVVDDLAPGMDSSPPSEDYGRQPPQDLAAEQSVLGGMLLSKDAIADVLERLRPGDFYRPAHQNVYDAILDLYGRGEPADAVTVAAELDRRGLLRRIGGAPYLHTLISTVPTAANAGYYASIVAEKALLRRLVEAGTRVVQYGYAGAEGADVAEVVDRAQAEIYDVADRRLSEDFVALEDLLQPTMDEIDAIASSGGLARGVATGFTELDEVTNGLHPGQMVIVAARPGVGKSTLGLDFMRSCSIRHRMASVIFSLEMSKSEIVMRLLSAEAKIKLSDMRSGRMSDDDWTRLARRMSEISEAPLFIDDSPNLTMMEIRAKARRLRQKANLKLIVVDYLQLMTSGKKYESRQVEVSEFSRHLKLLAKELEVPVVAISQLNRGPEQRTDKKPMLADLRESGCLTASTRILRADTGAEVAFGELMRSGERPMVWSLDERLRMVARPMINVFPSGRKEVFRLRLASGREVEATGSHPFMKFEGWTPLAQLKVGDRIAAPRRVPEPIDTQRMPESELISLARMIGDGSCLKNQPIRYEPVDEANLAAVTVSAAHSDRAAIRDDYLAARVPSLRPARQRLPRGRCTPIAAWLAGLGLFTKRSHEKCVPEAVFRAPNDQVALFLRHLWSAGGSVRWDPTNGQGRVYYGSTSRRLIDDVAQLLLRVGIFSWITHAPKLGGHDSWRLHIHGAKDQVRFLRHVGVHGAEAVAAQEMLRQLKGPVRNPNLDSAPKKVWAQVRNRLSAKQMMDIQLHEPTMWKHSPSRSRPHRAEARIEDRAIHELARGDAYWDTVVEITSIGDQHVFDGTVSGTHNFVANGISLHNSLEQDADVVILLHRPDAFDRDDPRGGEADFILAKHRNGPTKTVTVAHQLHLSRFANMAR

Protein RecA = target: T8, Protein RecA (Mycobacterium tuberculosis, UniProt P9WHJ3); experiment: Fluorescence Cell-Free Homogeneous Dose Retest to Identify Inhibitors of RecA-Intein Splicing Activity. [Related pubchem assays (depositor defined):AID2097, AID2223, AID489010, AID492950]; format: functional
T8 sequence (P9WHJ3 whole entry): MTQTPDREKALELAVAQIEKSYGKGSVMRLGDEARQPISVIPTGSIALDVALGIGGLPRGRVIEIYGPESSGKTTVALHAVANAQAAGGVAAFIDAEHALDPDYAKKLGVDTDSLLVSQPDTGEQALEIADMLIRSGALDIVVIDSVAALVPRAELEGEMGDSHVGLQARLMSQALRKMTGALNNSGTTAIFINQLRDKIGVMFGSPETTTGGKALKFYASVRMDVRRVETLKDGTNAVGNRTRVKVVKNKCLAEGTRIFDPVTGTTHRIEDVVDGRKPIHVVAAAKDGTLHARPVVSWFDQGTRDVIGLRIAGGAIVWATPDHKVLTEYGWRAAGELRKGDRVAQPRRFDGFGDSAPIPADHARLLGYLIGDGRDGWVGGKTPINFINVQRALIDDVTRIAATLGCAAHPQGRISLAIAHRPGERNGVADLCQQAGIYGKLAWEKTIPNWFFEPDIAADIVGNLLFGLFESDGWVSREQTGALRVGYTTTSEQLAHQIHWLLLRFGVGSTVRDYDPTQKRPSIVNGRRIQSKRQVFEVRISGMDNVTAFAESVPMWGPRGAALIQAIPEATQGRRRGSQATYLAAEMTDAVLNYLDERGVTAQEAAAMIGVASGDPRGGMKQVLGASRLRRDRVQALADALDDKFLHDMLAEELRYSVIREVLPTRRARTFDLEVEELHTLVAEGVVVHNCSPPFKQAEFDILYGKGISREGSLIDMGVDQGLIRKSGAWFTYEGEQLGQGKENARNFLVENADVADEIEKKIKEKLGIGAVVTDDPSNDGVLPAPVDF

Hexokinase = Hexokinase (Trypanosoma brucei, UniProt Q38C41); experiment: Confirmation assay for inhibitors of Trypanosoma brucei hexokinase 1-Analogue-first series. [Related pubchem assays (depositor defined):AID1430, AID1632, AID2516, AID2560, AID2579, AID2600, AID449725, AID492951]; format: functional
Chain of Hexokinase (Q38C41 whole entry): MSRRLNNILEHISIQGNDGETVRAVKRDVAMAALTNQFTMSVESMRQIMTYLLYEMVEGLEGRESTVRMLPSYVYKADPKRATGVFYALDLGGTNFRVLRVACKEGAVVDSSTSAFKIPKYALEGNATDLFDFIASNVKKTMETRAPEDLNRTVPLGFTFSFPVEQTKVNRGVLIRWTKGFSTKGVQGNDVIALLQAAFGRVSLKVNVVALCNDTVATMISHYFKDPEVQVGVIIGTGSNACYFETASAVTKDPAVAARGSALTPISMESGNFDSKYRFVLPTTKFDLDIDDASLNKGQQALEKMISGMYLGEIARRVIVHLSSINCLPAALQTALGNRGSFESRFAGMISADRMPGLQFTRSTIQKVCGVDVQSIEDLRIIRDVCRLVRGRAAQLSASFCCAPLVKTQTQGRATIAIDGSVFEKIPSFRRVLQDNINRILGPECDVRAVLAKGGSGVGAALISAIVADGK

cells [20] = format: functional, cell-based
[21] = target: Luciferin 4-monooxygenase (Photinus pyralis, UniProt P08659); experiment: inhibition of purified Photinus pyralis luciferase – biochemical, luminescence, dose response (AID 1891)
Beta-galactosidase = Beta-galactosidase (Escherichia coli, UniProt Q8VNN2); format: functional
INS1 = experiment: INS-1E survival protection against cytokine death – cell-based, luminescence, retest, dose response (AID 449756); format: functional; settings: Rattus norvegicus;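 further: cell death triggered by IL-1 beta plus TNF-alpha plus IFN-gamma mixture; protective hits raise ATP signal compared with cytokine alone wells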
cells [22] = format: functional, cell-based; remark: listed apart in the source
[23] = Luminescence Cell-Based Dose Confirmation HTS to Identify Inhibitors of Platelet Dense Granule Release. [Related pubchem assays: 1663 (Primary HTS), 1678 (Summary of Project)]; format: functional
[24] = target: T9, Kappa-type opioid receptor (Homo sapiens, UniProt P41145); format: functional
T9 sequence (P41145 whole entry): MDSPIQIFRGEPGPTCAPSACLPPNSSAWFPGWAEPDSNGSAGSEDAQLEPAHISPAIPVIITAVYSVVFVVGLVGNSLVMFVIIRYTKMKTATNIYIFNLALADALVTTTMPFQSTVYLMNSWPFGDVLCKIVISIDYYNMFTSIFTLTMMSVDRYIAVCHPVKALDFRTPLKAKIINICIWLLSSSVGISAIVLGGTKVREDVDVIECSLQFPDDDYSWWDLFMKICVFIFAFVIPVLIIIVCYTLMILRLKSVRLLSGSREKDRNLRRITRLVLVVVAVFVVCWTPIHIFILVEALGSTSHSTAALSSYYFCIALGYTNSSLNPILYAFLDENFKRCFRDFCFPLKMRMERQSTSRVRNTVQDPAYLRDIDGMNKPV

[25] = target: T9, Kappa-type opioid receptor; format: functional; remark: listed apart in the source

T1 sequence (P51452 whole entry): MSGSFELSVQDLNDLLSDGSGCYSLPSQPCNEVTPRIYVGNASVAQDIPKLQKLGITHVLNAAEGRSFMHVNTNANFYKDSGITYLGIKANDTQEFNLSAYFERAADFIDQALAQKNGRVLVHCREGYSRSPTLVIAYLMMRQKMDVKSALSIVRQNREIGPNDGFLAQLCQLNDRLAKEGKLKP

Cc1c(/N=N/c2c(-c3ccc([N+](=O)[O-])cc3)[nH]n(C(N)=S)c2=O)cccc1[N+](=O)[O-]
IC50 [1]: 1.71 µM (active)
IC50 [2]: 3.37 µM (active)
IC50 [3]: 7.01 µM (active)
IC50 [4]: 16.3 µM (active)
IC50 [5]: 50 µM (inactive)
IC50 [6]: > 50 µM (inactive)
IC50 [7]: > 66 µM (inactive)
IC50 [8]: 6.05 µM (active)
IC50 [9]: > 66 µM (inactive)

O=C(Nc1ccncc1NC(=O)c1cccc([N+](=O)[O-])c1)c1cccc([N+](=O)[O-])c1
IC50 [4]: 18.9 µM (active)
IC50 [6]: > 50 µM (inactive)

O=C(Nc1nnc(-c2ccccc2Cl)o1)c1ccc(S(=O)(=O)N2CCCCCC2)cc1
CC50 [10]: 7.66 µM (active)
EC50 (Streptococcus): 0.793 µM (active)
CC50 [11]: 4.8 µM (active)
Ki (fMet-Leu-Phe receptor): > 66.7 µM (inactive)
EC50 [12]: 0.266 µM (active)
CC50 [13]: 3.49 µM (active)
IC50 (cells [14]): 14.2 µM (active)

Cc1cccc2sc(N(CCN(C)C)C(=O)c3ccc4ccccc4c3)nc12
AC50 (CAAX prenyl protease 2): > 100 µM (inactive)

CC(C)(C)C1CCc2sc(C(=O)NNC(=O)CCl)cc2C1 (centres undefined)
EC50 [15]: > 60 µM (inconclusive)
EC50 [16]: 1.75 µM (active)
CC50 [17]: 3.58 µM (active)
IC50 [18]: 3.86 µM (active)
AC50 [19]: 4.29 µM (active)
EC50 (Protein RecA): 1.47 µM (active)

CC(C)(C)c1ccc(C(=O)Nc2cc(Cl)c(Br)cc2C(=O)O)cc1
IC50 (Hexokinase): 0.976 µM (active)

COc1ccc(C(=O)Nc2ccccc2C(=O)N/N=C/c2ccccn2)cc1OC
EC50 (cells [20]): 16.6 µM (active)
CC50 [10]: 14.3 µM (active)
CC50 [11]: > 20 µM (active)
EC50 [21]: 1.3 µM (active)
EC50 (Beta-galactosidase): > 31.5 µM (inactive)
AC50 (INS1): 2.45 µM (active)
EC50 (cells [22]): 8.88 µM (active)
EC50 [23]: 0.298 µM (active)
CC50 [13]: 5.29 µM (active)
IC50 [24]: > 32 µM
IC50 (cells [14]): 36.9 µM (active)
IC50 [25]: 7.91 µM (active)

OB1OCc2cc(C(F)(F)F)ccc21
IC50 (Hexokinase): > 25 µM (inactive)
